# Experiments:
# [1] = Plasma protein binding in human plasma at 750 mg administered as single dose; type: ADME, organism-based; settings: read-out: PPB (converted)
# [2] = AUC (0 to infinity) in human epithelial lining fluid at 750 mg administered as single dose; type: ADME, tissue-based; design: dose 750 mg, time infinity
# [3] = Penetration ratio, ratio of AUC in human epithelial lining fluid to fAUC in human plasma at 750 mg administered as single dose; type: ADME; settings: in vivo
structure (smiles),measurement,setting,value
CCCCCCCCCCNCCN[C@@]1(C)C[C@H](O[C@H]2[C@H](Oc3c4cc5cc3Oc3ccc(cc3Cl)[C@@H](O)[C@@H](NC(=O)[C@@H](CC(C)C)NC)C(=O)N[C@@H](CC(N)=O)C(=O)N[C@H]5C(=O)N[C@H]3C(=O)N[C@H](C(=O)N[C@H](C(=O)O)c5cc(O)c(CNCP(=O)(O)O)c(O)c5-c5cc3ccc5O)[C@H](O)c3ccc(c(Cl)c3)O4)O[C@H](CO)[C@@H](O)[C@@H]2O)O[C@@H](C)[C@H]1O [TELAVANCIN],fraction unbound,[1],0.1
same,AUC(0-inf),[2],74800 ng·h/mL
same,Ratio,[3],1.01
